Test results published in patent US20220071952A1, “METHODS OF TREATING AND PREVENTING HEPATOTOXICITY” (Natreon, Inc., priority 2020, published 2022).

Tests used:
[1] = tested on: alcohol-induced hepatotoxicity in mice; assay: Alcohol (ethanol)-induced hepatotoxicity in mice, biochemical and physical parameters (Example III); assay type: in vivo, Swiss Albino mice; details: for Relative organ weight (w.r.t body weight) Kidney / Relative organ weight (w.r.t body weight) Liver / ACP / ALP / ALT(SGPT) / AST(SGOT) / Total Protein: 10 mg/kg p.o. + alcohol 5 g/kg p.o. twice daily, mean ± SD; for ACP / ALP / ALT(SGPT) / AST(SGOT) / Total Protein: plasma
Method: (§1) Swiss Albino male and female mice weighing approximately 30±5 g, 2 month old mice were obtained from National Research Institute of Ayurveda for Drug Development (Govt. of India), Kolkata, and were housed in polypropylene cages at 22±3° C., relative air humidity of 45 to 55%, with 12.00 hr light & dark cycle (lighting on from 6:00 AM to 6:00 PM). Mice were provided a standard pellet chow diet (carbohydrate 65.5%, protein 17.6%, fat 6.6%) and distilled water ad libitum. The mice were acclimatized for one week in the laboratory conditions, before being used in the experiment. All experiments were conducted between 10.00 hr and 14.00 hr. Principles of laboratory animals care (NIH publication no. 85-23, revised 1985) were followed.
In the present study simultaneous administration of alcohol (ethanol) and treatment with 3-OH-DBP and 3,8-(OH)2-DBP was done.
(§2) Vehicle control animals (“Con Veh”) were administered 0.3% CMC orally for 15 days.
(§3) Animals receiving ethanol (“Alc+0.3 CMC”, “3-OH-DBP+Alc”, “3,8-(OH)2-DBP+Alc”) were administered ethanol in 0.3% CMC orally as discussed above.
(§4) Results were expressed in terms of mean±SD (n=8). The data were subjected to one way ANOVA followed by Tukey's test using GraphPad Prism 4.0 software to establish statistical significance (*p<0.05, **p<0.01, ***p<0.001 vs. vehicle control; # p<0.05, ## p<0.01, ### p<0.001 vs. animals administered ethanol only).

[2] = Body weight, food intake and water intake during alcohol-induced hepatotoxicity study (Example III); assay type: in vivo, Swiss Albino mice; details: for change in body weight / change in food intake / change in water intake: 10 mg/kg p.o. + alcohol, 15 days; for body weight / food intake / water intake: 10 mg/kg p.o. + alcohol 5 g/kg p.o. twice daily, mean ± SD
Method: as §1, §2, §3, §4

[3] = tested on: paracetamol-induced hepatotoxicity in mice; assay: Synergistic hepatoprotective activity of DBPs against paracetamol-induced hepatotoxicity (Example IV); assay type: in vivo; details: for ACP / ALP / ALT / AST / Total Protein: paracetamol 200 mg/kg, mean ± SEM, n=4
[4] = tested on: alcohol-induced hepatotoxicity in mice; assay: Synergistic hepatoprotective activity of DBPs against alcohol-induced hepatotoxicity (Example IV); details: for ACP / ALP / ALT / AST / Total Protein: alcohol 5 g/kg, mean ± SEM, n=4
Method: Hepatotoxicity was induced by oral administration of alcohol (ethanol: 5 g/kg) from stock 400 mg/ml twice daily for 15 days.
3-OH-DBP and 3,8-(OH)2-DBP were each separately suspended in 0.3% CMC and administered at a dose of 10 mg/kg body weight per orally for 15 days. During the 15 days treatment, body weight, food intake, and water intake were monitored at regular intervals. Following 15 days of treatment physical parameters (relative organ weight) and biochemical parameters (plasma total protein content, ALT, AST, ALP, and ACP) were studied.
3-OH-DBP (2 mg/kg body weight, 10 mg/kg body weight);
3,8-(OH)2-DBP (10 mg/kg body weight, 50 mg/kg body weight); and

[5] = female mice (Table 14), 10 mg/kg p.o.
[6] = male mice (Table 13), 10 mg/kg p.o.
[7] = female mice, doses 3-OH-DBP 2, 3,8-(OH)2-DBP 10, 1:5 combination 12 mg/kg b.w.
[8] = female mice, doses 3-OH-DBP 10, 3,8-(OH)2-DBP 50, 1:5 combination 60 mg/kg b.w.
[9] = male mice, doses 3-OH-DBP 2, 3,8-(OH)2-DBP 10, 1:5 combination 12 mg/kg b.w.
[10] = male mice, doses 3-OH-DBP 10, 3,8-(OH)2-DBP 50, 1:5 combination 60 mg/kg b.w.
[11] = female mice, doses 3-OH-DBP 2, 3,8-(OH)2-DBP 10, combination 12 mg/kg b.w.
[12] = female mice, doses 3-OH-DBP 10, combination 60 mg/kg b.w.

O=c1oc2cc(O)ccc2c2ccccc12 [3-OH-DBP, 3-hydroxy-dibenzo-alpha-pyrone]
hepatoprotective activity against alcohol-induced hepatotoxicity ([1]; 10 mg/kg p.o., 15 days): significant hepatoprotective activity
effect on alcohol-induced increased plasma ACP [1, 5]: significantly (p<0.05) attenuated
effect on alcohol-induced increased plasma ALT [1, 5]: significantly (p<0.001) attenuated
effect on alcohol-induced increased plasma AST [1, 5]: significantly (p<0.05; p<0.01) attenuated
effect on plasma ALP level compared with ALC group [1, 5]: significantly (p<0.05) decreased
Relative organ weight (w.r.t body weight) Kidney ([1]; female mice, 15 days): 0.013 ± 0.001^
Relative organ weight (w.r.t body weight) Liver ([1]; female mice, 15 days): 0.052 ± 0.011^
ACP ([1]; female mice, 15 days): 5.58 ± 2.19^# IU/L
ALP ([1]; female mice, 15 days): 32.95 ± 13.06^# IU/L
ALT(SGPT) ([1]; female mice, 15 days): 6.72 ± 2.88^## IU/L
AST(SGOT) ([1]; female mice, 15 days): 6.19 ± 1.94^# IU/L
Total Protein ([1]; female mice, 15 days): 2.75 ± 0.167 g/dL
effect on alcohol-induced increased plasma ACP [1, 6]: significantly (p<0.05) attenuated
effect on alcohol-induced increased plasma ALT [1, 6]: significantly (p<0.05) attenuated
effect on alcohol-induced increased plasma AST [1, 6]: significantly (p<0.05) attenuated
Relative organ weight (w.r.t body weight) Kidney ([1]; male mice, 15 days): 0.014 ± 0.001
Relative organ weight (w.r.t body weight) Liver ([1]; male mice, 15 days): 0.044 ± 0.001
ACP ([1]; male mice, 15 days): 5.36 ± 2.34^# IU/L
ALP ([1]; male mice, 15 days): 20.20 ± 6.18^# IU/L
ALT(SGPT) ([1]; male mice, 15 days): 11.93 ± 4.364^# IU/L
AST(SGOT) ([1]; male mice, 15 days): 5.83 ± 1.75^# IU/L
Total Protein ([1]; male mice, 15 days): 2.75 ± 0.167 g/dL
change in body weight ([2]; female mice): No significant change
change in food intake ([2]; female mice): No significant change
change in water intake ([2]; female mice): No significant change
body weight ([2]; female mice, Day 0): 26.83 ± 1.60 gm
food intake ([2]; female mice, Day 0): 8.14 ± 1.67 gm
water intake ([2]; female mice, Day 0): 4.16 ± 0.60 mL
body weight ([2]; female mice, Day 5): 25.5 ± 1.22 gm
water intake ([2]; female mice, Day 5): 4.32 ± 0.28 mL
body weight ([2]; female mice, Day 10): 24.33 ± 1.97 gm
food intake ([2]; female mice, Day 10): 16.38 ± 1.18 gm
water intake ([2]; female mice, Day 10): 1.85 ± 0.30 mL
body weight ([2]; female mice, Day 15): 25.17 ± 0.75 gm
food intake ([2]; female mice, Day 15): 15.88 ± 0.76 gm
water intake ([2]; female mice, Day 15): 1.84 ± 0.18 mL
change in body weight ([2]; male mice): No significant change
change in food intake ([2]; male mice): No significant change
change in water intake ([2]; male mice): No significant change
body weight ([2]; male mice, Day 0): 24.33 ± 2.25 gm
food intake ([2]; male mice, Day 0): 14.02 ± 0.06 gm
water intake ([2]; male mice, Day 0): 2.05 ± 0.23 mL
body weight ([2]; male mice, Day 5): 24 ± 1.55 gm
food intake ([2]; male mice, Day 5): 14.18 ± 0.72 gm
water intake ([2]; male mice, Day 5): 2 ± 0.27 mL
body weight ([2]; male mice, Day 10): 25.5 ± 1.05 gm
food intake ([2]; male mice, Day 10): 14.51 ± 0.77 gm
water intake ([2]; male mice, Day 10): 1.93 ± 0.23 mL
body weight ([2]; male mice, Day 15): 25.3 ± 0.52 gm
food intake ([2]; male mice, Day 15): 14.45 ± 0.78 gm
water intake ([2]; male mice, Day 15): 1.98 ± 0.25 mL
ACP, difference in values from paracetamol treated mice [3, 7]: A = (a-b = 4) U/L
ALP, difference in values from paracetamol treated mice [3, 7]: A = (a-b = 21) IU/L
ALT, difference in values from paracetamol treated mice [3, 7]: A = (a-b = 15) IU/L
AST, difference in values from paracetamol treated mice [3, 7]: A = (a-b = 45) IU/L
ACP, difference in values from paracetamol treated mice [3, 8]: D = (a-e = 7.6) U/L
ALP, difference in values from paracetamol treated mice [3, 8]: D = (a-e = 26) IU/L
ALT, difference in values from paracetamol treated mice [3, 8]: D = (a-e = 36) IU/L
AST, difference in values from paracetamol treated mice [3, 8]: D = (a-e = 71) IU/L
ACP [3, 7]: 12 ± 0.71***(b) U/L
ALP [3, 7]: 77 ± 11***(b) IU/L
ALT [3, 7]: 71 ± 9**(b) ^ IU/L
AST [3, 7]: 98 ± 10**(b) IU/L
Total Protein [3, 7]: 6.2 ± 0.16 g/dL
ACP [3, 8]: 8.4 ± 1.2^#(e) ^ U/L
ALP [3, 8]: 72 ± 6.9**(e) IU/L
ALT [3, 8]: 50 ± 9.8*,^#(e) IU/L
AST [3, 8]: 72 ± 6*,^#(e)^ IU/L
Total Protein [3, 8]: 6.2 ± 0.02 g/dL
Relative liver weight ([3]; male and female mice, paracetamol study of Example IV): significantly (p<0.01) increased
ACP, difference in values from paracetamol treated mice [3, 9]: A = (a-b = 8.5) U/L
ALP, difference in values from paracetamol treated mice [3, 9]: A = (a-b = 38.33) IU/L
ALT, difference in values from paracetamol treated mice [3, 9]: A = (a-b = 7.29) IU/L
AST, difference in values from paracetamol treated mice [3, 9]: A = (a-b = 30.67) IU/L
ACP, difference in values from paracetamol treated mice [3, 10]: D = (a-e = 5.44) U/L
ALP, difference in values from paracetamol treated mice [3, 10]: D = (a-e = 43.75) IU/L
ALT, difference in values from paracetamol treated mice [3, 10]: D = (a-e = 16.14) IU/L
AST, difference in values from paracetamol treated mice [3, 10]: D = (a-e = 31.7) IU/L
ACP [3, 9]: 9.69 ± 0.32**,^##(b) U/L
ALP [3, 9]: 90.17 ± 4.16***,^#(b) IU/L
ALT [3, 9]: 60.34 ± 4.78 (b) IU/L
AST [3, 9]: 71.38 ± 4.63^#(b)^ IU/L
Total Protein [3, 9]: 7.28 ± 0.14 g/dL
ACP [3, 10]: 12.75 ± 1.43 (e) U/L
ALP [3, 10]: 84.75 ± 5.32*,^#(e)^ IU/L
ALT [3, 10]: 51.49 ± 4.49 (e)^ IU/L
AST [3, 10]: 70.35 ± 6.21(e)^ IU/L
Total Protein [3, 10]: 7.34 ± 0.15 g/dL
hepatoprotective activity (conclusion, Tables 15 and 16) ([3]; paracetamol-induced hepatotoxicity, male and female mice): hepatoprotective activity in a dose dependent manner
hepatoprotective activity (conclusion, Tables 17 and 18) ([4]; alcohol-induced hepatotoxicity, male and female mice): hepatoprotective activity in a dose dependent manner
ACP [4, 11]: 19.3 ± 1 (b) U/L
ALP [4, 11]: 106.6 ± 8 (b) ^ IU/L
ALT [4, 11]: 85.31 ± 7.89 (b) IU/L
AST [4, 11]: 54.81 ± 8.13 (b)^ IU/L
Total Protein [4, 11]: 7.21 ± 0.36 g/dL
ACP [4, 12]: 12.1±***,^# (e) U/L
ALP [4, 12]: 79 ± 11 (e) IU/L
ALT [4, 12]: 57.15 ± 3.46 (e) IU/L
AST [4, 12]: 41.11 ± 6.98 (e)^ IU/L
Total Protein [4, 12]: 6.53 ± 0.32 g/dL
ACP, difference in values from alcohol treated mice [4, 11]: A = (a-b = 1.97) U/L
ALP, difference in values from alcohol treated mice [4, 11]: A = (a-b = 33.4) IU/L
ALT, difference in values from alcohol treated mice [4, 11]: A = (a-b = 3.53) IU/L
AST, difference in values from alcohol treated mice [4, 11]: A = (a-b = 14.14) IU/L
ACP, difference in values from alcohol treated mice [4, 12]: D = (a-e = 8.9) U/L
ALP, difference in values from alcohol treated mice [4, 12]: D = (a-e = 61) IU/L
ALT, difference in values from alcohol treated mice [4, 12]: D = (a-e = 31.69) IU/L
AST, difference in values from alcohol treated mice [4, 12]: D = (a-e = 27.84) IU/L
ACP [4, 9]: 13.3 ± 1.03 (b) U/L
ALP [4, 9]: 90.2 ± 6.68 (b) IU/L
ALT [4, 9]: 74.9 ± 1.66 (b) IU/L
AST [4, 9]: 46.5 ± 3.19 (b) IU/L
Total Protein [4, 9]: 6.68 ± 0.43 g/dL
ACP [4, 10]: 11.6 ± 0.89 (e) U/L
ALP [4, 10]: 83.4 ± 4.87 (e) IU/L
ALT [4, 10]: 65.4 ± 2.59(e) IU/L
AST [4, 10]: 39.9 ± 5.30 (e) IU/L
Total Protein [4, 10]: 8.24 ± 0.43 g/dL
ACP, difference in values from alcohol treated mice [4, 9]: A = (a-b = 5.3) U/L
ALP, difference in values from alcohol treated mice [4, 9]: A = (a-b = 43.8) IU/L
ALT, difference in values from alcohol treated mice [4, 9]: A = (a-b = 31.1) IU/L
AST, difference in values from alcohol treated mice [4, 9]: A = (a-b = 13.5) IU/L
ACP, difference in values from alcohol treated mice [4, 10]: D = (a-e = 7) U/L
ALP, difference in values from alcohol treated mice [4, 10]: D = (a-e = 50.6) IU/L
ALT, difference in values from alcohol treated mice [4, 10]: D = (a-e = 40.6) IU/L
AST, difference in values from alcohol treated mice [4, 10]: D = (a-e = 20.8) IU/L
